Reference: patent publication US20050038072A1, “Nitrogeneous cyclic ketone derivative, process for producing the same, and use” (Takeda Chemical Industries, Ltd., priority 2001, published 2005)
Where a name gives a salt, the structure may show the parent alone.

System: not given
Experiment: not given
Conditions: not given

| Structure (SMILES) | melting point |
| --- | --- |
| O=C1CCNCC1C(c1ccccc1)c1ccccc1F (centres unmarked) (as salt: hydrochloride) | 204 to 205 °C |
| O=C1CCN(Cc2ccccc2)CC1C(c1ccccc1)c1ccccc1F (centres unmarked) (as salt: hydrochloride) [Example 157, 1-Benzyl-3-[(2-fluorophenyl)(phenyl)methyl]-4-piperidinone] | 214 to 215 °C |
| O=C1CCN(Cc2ccccc2)CC1C(c1ccc(Cl)cc1)c1ccccc1Cl (centres unmarked) (as salt: hydrochloride) [Example 158, 1-Benzyl-3-[(2-chlorophenyl)(4-chlorophenyl)methyl]-4-piperidinone] | 190 to 191 °C |
| O=C1CN(Cc2ccccc2)CCC1C(c1ccc(F)cc1)c1ccc(F)cc1 (centres unmarked) (as salt: hydrochloride) [Example 195, 1-Benzyl-4-[bis(4-fluorophenyl)methyl]-3-piperidinone] | 177.5 to 179 °C |
| O=C1CNCCC1C1c2ccccc2CCc2ccccc21 (centres unmarked) (as salt: hydrochloride) [Example 198, 4-(10,11-Dihydro-5H-dibenzo[a,d][7]annulen-5-yl)-3-piperidinone] | 196 to 198 °C (dec.) |
| COc1ccc2ccccc2c1CN1CCC(=O)C(C(c2ccc(F)cc2)c2ccc(F)cc2)C1 (centres unmarked) [Example 148, 3-[Bis(4-fluorophenyl)methyl]-1-[(2-methoxy-1-naphthyl)methyl]-4-piperidinone] | 125 to 126 °C |
| COc1c(CN2CCC(=O)C(C(c3ccccc3)c3ccccc3)C2)cc(C(C)(C)C)cc1C(C)(C)C (centres unmarked) [Example 161, 3-Benzhydryl-1-(3,5-di-tert-butyl-2-methoxybenzyl)-4-piperidinone] | 136 to 138 °C |

Other lines, results leading:

| melting point | Structure (SMILES) |
| --- | --- |
| 174 to 175 °C | COc1ccc(OC(F)(F)F)cc1CN1CCC(=O)C(C(c2ccccc2)c2ccccc2)C1 (centres unmarked) (as salt: hydrochloride) [Example 168, 3-Benzhydryl-1-[2-methoxy-5-(trifluoromethoxy)benzyl]-4-piperidinone] |
| 137 to 138 °C | CCOc1cccc(OC)c1CN1CCC(=O)C(C(c2ccccc2)c2ccccc2)C1 (centres unmarked) [Example 170, 3-Benzhydryl-1-(2-ethoxy-6-methoxybenzyl)-4-piperidinone] |
| 119 to 120 °C | COc1ccc([N+](=O)[O-])cc1CN1CCC(=O)C(C(c2ccccc2)c2ccccc2)C1 (centres unmarked) [Example 176, 3-Benzhydryl-1-(2-methoxy-5-nitrobenzyl)-4-piperidinone] |
| 132 to 135 °C | COc1ccc(N(S(C)(=O)=O)S(C)(=O)=O)cc1CN1CCC(=O)C(C(c2ccccc2)c2ccccc2)C1 (centres unmarked) [Example 178, N-[3-[(3-Benzhydryl-4-oxo-1-piperidinyl)methyl]-4-methoxyphenyl]-N-(methylsulfonyl)methanesulfonamide] |
| 132 to 135 °C | COc1ccc(NS(C)(=O)=O)cc1CN1CCC(=O)C(C(c2ccccc2)c2ccccc2)C1 (centres unmarked) [Example 183, N-[3-[(3-Benzhydryl-4-oxo-1-piperidinyl)methyl]-4-methoxyphenyl]methanesulfonamide] |
| 177 to 178 °C | O=C1CCN(Cc2cc([N+](=O)[O-])ccc2O)CC1C(c1ccccc1)c1ccccc1 (centres unmarked) [Example 184, 3-Benzhydryl-1-(2-hydroxy-5-nitrobenzyl)-4-piperidinone] |

Molecular target: T1, substance P receptor (Homo sapiens, UniProt P25103)
T1 construct: endogenous in cells; host or cells: IM-9 human lymphoblast cells (membrane preparation)
T1 sequence (P25103 whole entry): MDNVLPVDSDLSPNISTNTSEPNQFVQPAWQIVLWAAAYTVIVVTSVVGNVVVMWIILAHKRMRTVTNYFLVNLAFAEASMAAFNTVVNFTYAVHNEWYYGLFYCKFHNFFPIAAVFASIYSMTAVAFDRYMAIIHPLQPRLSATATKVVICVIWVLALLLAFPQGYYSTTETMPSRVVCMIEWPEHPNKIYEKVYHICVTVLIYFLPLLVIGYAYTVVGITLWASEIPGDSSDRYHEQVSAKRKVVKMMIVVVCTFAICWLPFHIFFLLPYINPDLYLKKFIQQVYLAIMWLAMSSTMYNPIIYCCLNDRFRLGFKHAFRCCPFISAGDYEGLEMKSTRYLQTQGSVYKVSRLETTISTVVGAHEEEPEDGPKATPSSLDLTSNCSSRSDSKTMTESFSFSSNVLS
Experiment: Radioligand receptor binding inhibiting activity (binding inhibitory activity using receptor from human lymphoblast cell (IM-9))
Conditions: radioligand [125I]-labeled substance P (125I-BHSP), 25° C., 30 minutes
Procedure: Radioligand receptor binding inhibiting activity (binding inhibitory activity using receptor from human lymphoblast cell (IM-9))
A modified method by M. A. Cascieri et al (Molecular Pharmacology, Vol. 42, p. 458 (1992)) was employed. The receptor was prepared from a human lymphoblast cell (IM-9). After inoculation of IM-9 cells (2×10^5 cells/ml), the cells were cultured for 3 days (1L), and then the culture was centrifuged at 500×G for 5 minutes to obtain a cell pellet. The resultant pellet was washed once with a phosphate buffer (FLOW LABORATORIES, CAT. No. 28-103-05), fractured in 30 ml of a 50 mM Tris-HCl buffer (pH 7.4) containing 120 mM sodium chloride, 5 mM potassium chloride, 2 μg/ml chymostatin, 40 μg/ml bacitracin, 5 μg/ml phosphoramidone, 0.5 mM phenylmethylsulfonyl fluoride and 1 mM ethylenediamine tetraacetic acid using a polytron homogenizer (Kinematika, Germany), and centrifuged at 40,000×G for 20 minutes. The separated material was washed twice with 30 ml of the buffer solution described above and stored frozen as a receptor standard preparation (−80° C.)
This preparation was suspended in a reaction buffer [50 mM Tris-HCl buffer (pH 7.4), 0.02% bovine serum albumin, 1 mM phenylmethylsulfonyl fluoride, 2 μg/ml of chymostatin, 40 μg/ml bacitracin, 3 mM manganese chloride] at a protein concentration of 0.5 mg/ml and a 100 μl portion was used for the reaction. The sample, 125I-BHSP (0.46 KBq) was also added and the mixture was reacted in a 0.2 ml reaction buffer at 25° C. for 30 minutes. A non-specific binding level was measured by adding substance P at 2×10^−6 M.
After the reaction, a Cell Harvester [290PHD manufactured by Cambridge Technology, Inc, USA] was used to conduct a rapid filtration over a glass filter [GF/B manufactured by Whatman, USA] whereby terminating the reaction, followed by washing three times with 250 μl of a 50 mM Tris-HCl buffer solution (pH 7.4) containing 0.02% bovine serum albumin. Then, the radioactivity remaining on the filter was counted with a gamma counter. The filter was used after immersing in a 0.1% polyethylene imine over a whole day and night followed by drying in air.
The radioligand means [^125I]-labeled substance P.

| Structure (SMILES) | IC50 [nM] |
| --- | --- |
| COc1ccc(Br)cc1CN1CCC(=O)C(C(c2ccc(F)cc2)c2ccc(F)cc2)C1 (single isomer, unassigned; (-)) [Example 163, (−)-3-[Bis(4-fluorophenyl)methyl]-1-(5-bromo-2-methoxybenzyl)-4-piperidinone] | 0.62 |
| CCOc1ccccc1CN1CCC(=O)C(C(c2ccc(F)cc2)c2ccc(F)cc2)C1 (centres unmarked) [Example 98, 3-[Bis(4-fluorophenyl)methyl]-1-(2-ethoxybenzyl)-4-piperidinone] | 0.85 |

The next lines start with the values.

| IC50 [nM] | Structure (SMILES) |
| --- | --- |
| 0.44 | CCOc1ccccc1CN1CCC(=O)C(C(c2ccccc2)c2ccccc2)C1 (centres unmarked) [Example 99, 3-Benzhydryl-1-(2-ethoxybenzyl)-4-piperidinone] |
| 0.34 | COc1ccc(OC(F)(F)F)cc1CN1CCC(=O)C(C(c2ccccc2)c2ccccc2)C1 (centres unmarked) [Example 168, 3-Benzhydryl-1-[2-methoxy-5-(trifluoromethoxy)benzyl]-4-piperidinone] |
| 0.42 | COc1ccc(C(C)C)cc1CN1CCC(=O)C(C(c2ccccc2)c2ccccc2)C1 (centres unmarked) [Example 175, 3-Benzhydryl-1-(5-isopropyl-2-methoxybenzyl)-4-piperidinone] |
| 0.26 | COc1ccc(NS(C)(=O)=O)cc1CN1CCC(=O)C(C(c2ccccc2)c2ccccc2)C1 (centres unmarked) [Example 183, N-[3-[(3-Benzhydryl-4-oxo-1-piperidinyl)methyl]-4-methoxyphenyl]methanesulfonamide] |
| 0.29 | CCOc1ccc([N+](=O)[O-])cc1CN1CCC(=O)C(C(c2ccccc2)c2ccccc2)C1 (centres unmarked) [Example 185, 3-Benzhydryl-1-(2-ethoxy-5-nitrobenzyl)-4-piperidinone] |
